Experimental findings from US6218167A, “Stable biocatalysts for ester hydrolysis” (ThermoGen, Inc., priority 1998, dated 2001) are described below.

In experiment [1] the target is T1, Thermus sp. T351 esterase E101, SEQ ID NO.:8 (Thermus filiformis, UniProt A0A0A2WSC9).
T1 construct: T351; native about 135 kD
Put plainly: biochemical. The format is biochemical. The text has this: The specific activity of the enzyme is ten fold greater than observed for E100 with 4-methyl-umbelliferyl butyrate (MUB) as the substrate. E101 is inhibited by PMSF but is insensitive to metal ions or metal ion chelators. […] Table 5 outlines the inhibitory effect of various substances on E101 activity.
Reaction conditions are those described in the general experimental above

For experiment [2], the system named is Thermus sp. T351 esterase E100. Put plainly: Inhibition by reaction components of p-nitrophenylproprionate hydrolysis by E100. The format is biochemical. Conditions: no concentration stated. As for the experimental part: Esterase activity is measured by monitoring the hydrolysis of p-nitrophenylproprionate (pNP), or in some cases MUB. Each substrate is dissolved in acetonitrile and added to the reaction mixture (100 μM final concentration) which contain 50 mM Tris HCl pH 8.5 adjusted for temperature dependent pH variation. Reactions are thermally equilibrated at 37° C. for 5 minutes prior to initiation of the reaction by addition of 10 μL of enzyme sample, while control reactions substituted equivalent amounts of BSA. The reaction is monitored spectrophotometrically at 405 nm ε=17 mM^-1 cm^-1 for pNP and 360 nm ε=7.9 mM^-1 cm^-1 for MUB.
The rates of enzyme catalyzed hydrolysis are corrected for the spontaneous hydrolysis of the substrate. Protein concentrations are determined by either the absorbance at 280 nm or by Lowery assay. Crude activity is determined by a calorimetric assay based on the hydrolysis of 5-bromo-4-chloro-3-indoyl esters suspended in a 0.7% agar matrix on microtiter plates. A 0.1 mg/ml solution of the indolyl derivative is dissolved in a minimal volume of acetonitrile and added to a warm solution of 0.7% agar containing 0.1M phosphate buffer pH 7.5. 10 μL of this solution is distributed to microtiter plates which, when cooled, could be used with as much as 100 μL of enzyme sample and incubated at temperatures from ambient to >65° C. […]

T1 sequence (A0A0A2WSC9 entry or part of it A175T/N178S/T194S/A197P/K279Q/P281S): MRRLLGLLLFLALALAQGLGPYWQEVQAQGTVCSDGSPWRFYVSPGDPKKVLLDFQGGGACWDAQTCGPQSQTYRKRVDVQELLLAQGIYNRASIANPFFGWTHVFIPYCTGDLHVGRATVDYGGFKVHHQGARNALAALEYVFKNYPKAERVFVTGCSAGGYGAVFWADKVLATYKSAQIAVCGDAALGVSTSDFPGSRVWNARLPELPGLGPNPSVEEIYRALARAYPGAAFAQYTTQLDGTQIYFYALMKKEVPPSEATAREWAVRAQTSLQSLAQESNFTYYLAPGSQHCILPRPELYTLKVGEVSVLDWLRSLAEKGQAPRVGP

Turning to `OC(CS)C(O)CS` (stereo not drawn) [DTT], the activity at 1000 µM in experiment [1] (read-out: Relative Rate) amounted to 98%.

In the case of `OCCS` [BME, β-mercaptoethanol], the activity at 10000 µM in experiment [1] (read-out: Relative Rate) was 96%.

For the compound `O=C(O)CN(CCN(CC(=O)O)CC(=O)O)CC(=O)O` [EDTA], the activity at 1000 µM in experiment [1] (read-out: Relative Rate) is 93%.

As to `Cc1ccc(S(=O)(=O)F)cc1` [tosyl fluoride], the “Inhibition of E100 (in words)” value in experiment [2] is reported as “effectively inhibited”.

As to `O=S(=O)(F)Cc1ccccc1` [PMSF], the “Relative Rate” value in experiment [1] (additive 0.1 mM, None = 100%, substrate p-nitrophenylproprionate) amounted to 0%. In addition, the “Inhibition of E101 (in words)” value in experiment [1] (no concentration stated) is “inhibited”.
